Measurements as given in US8916554B2, “Amino-derivatives as novel inhibitors of histone deacetylase” (Janssen Pharmaceutica N.V., priority 2002, dated 2014).
≈ marks a conversion by molar mass, not a printed value. Like-named read-outs stand apart in the source and are kept apart here.

Tests used:
[1] = target: histone deacetylase (HDAC), HeLa nuclear extracts; assay: In vitro assay for inhibition of histone deacetylase; format: biochemical; design: key: pIC50 = negative log of IC50; details: [3H]acetylated histone H4 peptide substrate
Procedure: The in vitro assay for inhibition of histone deacetylase (see example C.1) measures the inhibition of HDAC enzymatic activity obtained with the compounds of formula (I).
HeLa nuclear extracts (supplier: Biomol) were incubated at 60 μg/ml with 2×10^−8 M of radiolabeled peptide substrate. As a substrate for measuring HDAC activity a synthetic peptide, i.e. the amino acids 14-21 of histone H4, was used. The substrate is biotinylated at the NH2-terminal part with a 6-aminohexanoic acid spacer, and is protected at the COOH-terminal part by an amide group and specifically [^3H]acetylated at lysine 16. The substrate, biotin-(6-aminohexanoic)Gly-Ala-([^3H]-acetyl-Lys-Arg-His-Arg-Lys-Val-NH2), was added in a buffer containing 25 mM Hepes, 1 M sucrose, 0.1 mg/ml BSA and 0.01% Triton X-100 at pH 7.4. After 30 min the deacetylation reaction was terminated by the addition of HCl and acetic acid. (final concentration 0.035 mM and 3.8 mM respectively). After stopping the reaction, the free ^3H-acetate was extracted with ethylacetate. After mixing and centrifugation, the radioactivity in an aliquot of the upper (organic) phase was counted in a β-counter.
For each experiment, controls (containing HeLa nuclear extract and DMSO without compound), a blank incubation (containing DMSO but no HeLa nuclear extract or compound) and samples (containing compound dissolved in DMSO and HeLa nuclear extract) were run in parallel. In first instance, compounds were tested at a concentration of 10^−5M. […] In each test the blank value was substracted from both the control and the sample values. The control sample represented 100% of substrate deactylation. For each sample the radioactivity was expressed as a percentage of the mean value of the controls. […] Herein the effects of test compounds are expressed as pIC50 (the negative log value of the IC50-value).

[2] = system: human A2780 ovarian carcinoma cells; assay: Determination of antiproliferative activity on A2780 cells (MTT); format: cell-based; details: four days of incubation; for IC50: Homo sapiens, 96 h, read-out: Cellular activity pIC50 (converted)
Procedure: Cellular activity of the compounds of formula (I) was determined on A2780 tumour cells using a colorimetric assay for cell toxicity or survival (Mosmann Tim, Journal of Immunological Methods 65: 55-63, 1983)(see example C.2).
All compounds tested were dissolved in DMSO and further dilutions were made in culture medium. Final DMSO concentrations never exceeded 0.1% (v/v) in cell proliferation assays. Controls contained A2780 cells and DMSO without compound and blanks contained DMSO but no cells. MTT was dissolved at 5 mg/ml in PBS. A glycine buffer comprised of 0.1 M glycine and 0.1 M NaCl buffered to pH 10.5 with NaOH (1 N) was prepared (all reagents were from Merck).
The human A2780 ovarian carcinoma cells (a kind gift from Dr. T. C. Hamilton [Fox Chase Cancer Centre, Pennsylvania, USA]) were cultured in RPMI 1640 medium supplemented with 2 mM L-glutamine, 50 μg/ml gentamicin and 10% fetal calf serum. Cells were routinely kept as monolayer cultures at 37° C. in a humidified 5% CO2 atmosphere. Cells were passaged once a week using a trypsin/EDTA solution at a split ratio of 1:40. All media and supplements were obtained from Life Technologies. Cells were free of mycoplasma contamination as determined using the Gen-Probe Mycoplasma Tissue Culture kit (supplier: BioMérieux).
Cells were seeded in NUNC™ 96-well culture plates (Supplier: Life Technologies) and allowed to adhere to the plastic overnight. Densities used for plating were 1500 cells per well in a total volume of 200 μl medium. After cell adhesion to the plates, medium was changed and drugs and/or solvents were added to a final volume of 200 μl. Following four days of incubation, medium was replaced by 200 μl fresh medium and cell density and viability was assessed using an MTT-based assay. To each well, 25 μl MTT solution was added and the cells were further incubated for 2 hours at 37° C. The medium was then carefully aspirated and the blue MTT-formazan product was solubilized by addition of 25 μl glycine buffer followed by 100 μl of DMSO. […] Within an experiment, the results for each experimental condition are the mean of 3 replicate wells. For initial screening purposes, compounds were tested at a single fixed concentration of 10^−6 M. For active compounds, the experiments were repeated to establish full concentration-response curves. For each experiment, controls (containing no drug) and a blank incubation (containing no cells or drugs) were run in parallel. The blank value was subtracted from all control and sample values. For each sample, the mean value for cell growth (in absorbance units) was expressed as a percentage of the mean value for cell growth of the control. […] Herein the effects of test compounds are expressed as pIC50 (the negative log value of the IC50-value).

[3] = Kinetic solubility in aqueous media; format: physicochemical; details: aqueous buffer, kinetic from dmso stock; phosphate citrate buffer pH 7.4, turbidity by nephelometer; read-out: Solubility Score
Procedure: Kinetic solubility in aqueous media measures the ability of a compound to stay in aqueous solution upon dilution (see example C.3).
DMSO-stock solutions are diluted with a single aqueous buffer solvent in 3 consecutive steps. For every dilution turbidity is measured with a nephelometer.
In the first dilution step, 10 μl of a concentrated stock-solution of the active compound, solubilized in DMSO (5 mM), was added to 100 μl phosphate citrate buffer pH 7.4 and mixed. In the second dilution step, an aliquot (20 μl) of the first dilution step was further dispensed in 100 μl phosphate citrate buffer pH 7.4 and mixed. Finally, in the third dilution step, a sample (20 μl) of the second dilution step was further diluted in 100 μl phosphate citrate buffer pH 7.4 and mixed. All dilutions were performed in 96-well plates. Immediately after the last dilution step the turbidity of the three consecutive dilution steps were measured with a nephelometer. Dilution was done in triplicate for each compound to exclude occasional errors. Based on the turbidity measurements a ranking is performed into 3 classes. Compounds with high solubility obtained a score of 3 and for this compounds the first dilution is clear. Compounds with medium solubility obtained a score of 2. For these compounds the first dilution is unclear and the second dilution is clear. […] The solubility of 14 compounds was measured.

[4] = not given; remark: listed apart in the source

O=C(NO)c1cnc(NCC2CCN(S(=O)(=O)c3ccc4ccccc4c3)CC2)nc1 [Co. No. 7]
Enzyme activity pIC50 [1]: 7.408
melting point: 240 °C
IC50 [2]: 7.78 µM
solubility [3]: < 75.8 µM

O=C(NO)c1cnc(NCC2CCCN(S(=O)(=O)c3ccc4ccccc4c3)C2)nc1 (stereo not shown) [Co. No. 8]
Enzyme activity pIC50 [1]: 7.23
melting point: 137 °C
IC50 [2]: 1.9 µM
solubility [3]: < 75.8 µM

O=C(NO)c1ccc(NC2CCCN(S(=O)(=O)c3ccc4c(c3)CCCC4)CC2)nc1 (stereo not shown) (hydrate or solvate) [Co. No. 6]
melting point: 115 °C

O=C(NO)c1cnc(NC2CCN(S(=O)(=O)c3ccc(-c4ccccc4)cc3)CC2)nc1 [compound 14]
Enzyme activity pIC50 [1]: 7.077
Cellular activity pIC50 [2]: 5.201

O=C(NO)c1ccc(NC2CCCN(S(=O)(=O)c3ccc4c(c3)CCCC4)CC2)nc1 (stereo not shown) [Co. No. 6]
Enzyme activity pIC50 [1]: 6.853
IC50 [2]: 4.52 µM
solubility [3]: 75.8 to 454 µM (≈ 33.7 to 202 µg/mL)

O=C(NO)c1cnc(NC2CCN(S(=O)(=O)c3ccc4ccccc4c3)CC2)nc1 [Co. No. 5]
Enzyme activity pIC50 [1]: 7.525
melting point: 256 °C
IC50 [2]: 3.37 µM
solubility [3]: > 454 µM

O=C(NO)c1cnc(NC2CCCN(S(=O)(=O)c3ccc4ccccc4c3)CC2)nc1 (stereo not shown) [Co. No. 3]
Enzyme activity pIC50 [1]: 7.306
melting point: 140 °C
IC50 [2]: 3.12 µM
solubility [3]: 75.8 to 454 µM (≈ 33.5 to 201 µg/mL)

COc1cc(N)c(Cl)cc1C(=O)NC1CCN(CCCOc2ccc(F)cc2)CC1OC (stereo not shown) [Cisapride]
% metabolism ([4]; human, 15 min, 5 μM): 45%

CCCO [propanol]
% metabolism ([4]; after 15 min of incubation with active microsomes (1 mg/ml), compound 5 μM): 25%

O=C(NO)c1ccc(NC2CCCN(S(=O)(=O)c3ccc(-c4ccccc4)cc3)CC2)nc1 (stereo not shown) [Co. No. 2]
Enzyme activity pIC50 [1]: 6.871
IC50 [2]: 1.57 µM
solubility [3]: < 75.8 µM

O=C(NO)c1ccc(NC2CCN(S(=O)(=O)c3ccc4ccccc4c3)CC2)nc1 [Co. No. 1]
Enzyme activity pIC50 [1]: 7.676
melting point: 160 °C
IC50 [2]: 2.45 µM
solubility [3]: > 454 µM

O=C(NO)c1cnc(NC2CCCN(S(=O)(=O)c3ccc(-c4ccccc4)cc3)CC2)nc1 (stereo not shown) [Co. No. 4]
Enzyme activity pIC50 [1]: 7.314
melting point: 227 °C
IC50 [2]: 1.45 µM
solubility [3]: < 75.8 µM

O=C(NO)c1cnc(NCC2CN(S(=O)(=O)c3ccc4ccccc4c3)CCO2)nc1 (stereo not shown) [Co. No. 9]
Enzyme activity pIC50 [1]: 7.161
melting point: 226 °C
IC50 [2]: 2.15 µM
solubility [3]: > 454 µM

O=C(NO)c1ccc(NC2CCCN(S(=O)(=O)c3ccc(-c4ccccc4)cc3)CC2)nc1 (stereo not shown) (hydrate or solvate) [Co. No. 2]
melting point: 115 °C
